Results on four molecules are retold here after patent publication US7241570B2, “Method of screening for agents that regulate the shedding of membrane bound proteins and methods of use” (University of Utah Research Foundation, priority 2001, dated 2007).

Test [1] deals with phosphatidylinositol 5-kinases. Particulars: cited from earlier work.
For test [2], the system named is β-APP shedding from embryonic fibroblasts. The experiment in a line: Release of endogenous β-APP from embryonic fibroblasts. Format: cell-based, mouse. The text has this: TACE is the only enzyme known to shed soluble TGFα, a process enhanced by stimulation with serum or PMA. Peschon, J. J. et al. Science 282, 1281-1284 (1998). It is not known whether or not the cytoplasmic tail of TACE is required to activate TGFα shedding. To test if DGKδ affected release of TGFα, the amounts of soluble TGFα in the culture media of dgkd^−/− and wild-type embryonic fibroblasts transfected with pro-TGFα were compared. […] Supporting a role for DGKδ in stimulated TGFα shedding, PMA-induced shedding of TGFα by dgkd^−/− cells was approximately 25% that of stimulated wild-type cells (FIG. 4A, left). […] Since TACE is the only enzyme known to shed TGFα, DGKδ was likely affecting TACE. TACE is also known to cleave β-APP, so the release of endogenous β-APP from embryonic fibroblasts was examined next. Reddy, P. et al. J. Biol. Chem. 275, 14608-14614 (2000).

The test system of test [3] is TNFα release from liver and spleen cell suspensions. The test is described as follows: TNFα ectodomain shedding from liver and spleen cell suspensions (ELISA). Particulars: LPS 5 μg/mL, PMA 50 ng/mL, liver and spleen cell suspensions of newborn mice. Format: cell-based, mouse. On the procedure: TACE was originally identified as the enzyme that proteolytically releases TNFα from the cell surface. Black, R. et al. Nature 385, 729-733 (1997); Moss, M. L. et al. Nature 385, 733-736 (1997). Whether deleting DGKδ affected ectodomain shedding of TNFα from liver and spleen cell suspensions was tested—where hematopoietic activity is highest in newborn mice. Tamura, K. et al. Cell 102, 221-231 (2000). To induce release on TNFα, the cell suspensions were stimulated with lipopolysaccharide (LPS, […]), PMA (50 ng/mL), or a combination of LPS (5 μg/mL) and PMA (50 ng/mL). As measured by ELISA, both agents induced release of TNFα into the medium, with LPS inducing a five-fold increase and PMA causing a three-fold increase. Combining LPS and PMA increased TNFα shedding twenty-fold. […] Reddy, P. et al. J. Biol. Chem. 275, 14608-14614 (2000)
A general note: In an ELISA, binding on a coated surface is turned into a signal by an enzyme label.

The subject of another test is DGKδ and TACE. The test is described as follows: Co-immunoprecipitation of DGKδ and myc-TACE overexpressed in COS7 cells. Particulars: COS7 cells after starvation (0.5% serum for 2 hrs). Format: cell-based. An excerpt: According to previous experiments, DGKδ appears to regulate the activity of TACE toward some of its substrates. Based on the data, however, it is not clear whether DGKδ directly activates TACE or indirectly affects its activity through another protein. It was hypothesized that in order to regulate TACE, DGKδ must associate with it or a complex of proteins that contains TACE. To address whether this occurs in vivo, the enzymes were overexpressed in COS7 cells and then co-immunoprecipitation analysis was performed. Myc-tagged TACE in cell lysates was immunoprecipitated with an anti-myc monoclonal antibody, and then immune complexes were analyzed for co-immunoprecipitation of DGKδ by immunoblotting. When cells were grown in normal medium (10% FBS) DGKδ clearly co-immunoprecipitated with TACE (FIG. 6 left). Controls using normal IgG for immunoprecipitation instead of anti-myc antibody, or where anti-myc was used, but myc-TACE was not included in the transfection, established the specificity of DGKδ-TACE co-immunoprecipitation. Two agents previously shown to induce TACE activity are serum factors and PMA. […] Thus, stimuli that increase TACE activity enhance an interaction between DGKδ and TACE, providing further evidence that DGKδ positively regulates TACE activity.

For test [4], the system named is phosphorylated ERK1 and 2. The test is described as follows: ERK phosphorylation after exogenous EGF in primary embryonic fibroblasts (immunoblot densitometry). Format: cell-based, mouse. An excerpt:
Whether signaling downstream of EGFR was affected in DGKδ mutant mice was also examined. Since the MAPK pathway is a major route of EGFR signaling, ERK phosphorylation was examined in cell lines developed from knockout mice. Prenzel, N., et al. Endocrine-Related Cancer 8, 11-31 (2001). In primary embryonic fibroblasts from wild-type mice, exogenous EGF caused a 2.2 fold increase in phosphorylated ERK1 and 2 as judged by densitometry of the immunoblot bands (FIG. 3). […] Activation of EGFR signaling is known to mediate stress fiber formation induced by serum factors. Prenzel, N., et al. Endocrine-Related Cancer 8, 11-31 (2001). […] Thus, whether DGKδ affects the activity of TACE was examined next.
On the technique in general: A western blot detects proteins with antibodies after separation by electrophoresis.

Take phosphatidic acid [PA]: the “activity of phosphatidylinositol 5-kinases in the presence of PA” value in test [1] is 8-14 fold.
In the case of `CCCCCCCCCCCCCC(=O)O[C@@H]1[C@@H](C)[C@@]2(O)[C@@H](C=C(CO)C[C@]3(O)C(=O)C(C)=C[C@@H]23)[C@@H]2C(C)(C)[C@]12OC(C)=O` [PMA], the “increase in β-APP shedding” value in test [2] (dgkd+/+ embryonic fibroblasts) was 6-8 fold; in test [2] (dgkd−/− embryonic fibroblasts), “moderate increase”. Also, the “increase in release of TNFα into the medium” value in test [3] is “three-fold”. Besides, the “co-immunoprecipitation of DGKδ and TACE” value in the test with DGKδ and TACE was “significantly increased”.
For the molecule lipopolysaccharide [LPS], the “increase in release of TNFα into the medium” value in test [3] is on record as “five-fold”.
Turning to EGF: exogenous EGF, EGF receptor ligand, the “increase in phosphorylated ERK1 and 2” value came out at 2.1 fold in test [4] (primary embryonic fibroblasts from DGKδ null mice) and 2.2 fold in test [4] (primary embryonic fibroblasts from wild-type mice, densitometry of immunoblot bands).
